Data reported in US20260022142A1, “MACROCYCLIC IMMUNOMODULATORS” (Bristol-Myers Squibb Company, priority 2022, published 2026).
Bridge positions count the residues as written; N and C are the ends. Square brackets hold non-standard residues; d marks the D form. Peptide text beside a SMILES is read from it. * marks the point of attachment. Bip = N[C@@H](Cc1ccc(-c2ccccc2)cc1)C(=O)O; Phe(3-Me) = Cc1cccc(C[C@H](N)C(=O)O)c1; Cha = N[C@@H](CC1CCCCC1)C(=O)O; Cit = NC(=O)NCCC[C@H](N)C(=O)O; Carboxymethyl = O=C(O)C*; Nle = CCCC[C@H](N)C(=O)O; Orn = NCCC[C@H](N)C(=O)O; Aun = NCCCCCCCCCCC(=O)O; Dab = NCC[C@H](N)C(=O)O; Dap = NC[C@H](N)C(=O)O

Target: T1, PD-1/PD-L1 interaction (PE-labeled human PD-L1-Ig binding to Jurkat cell line over-expressing human PD-1) (Homo sapiens, UniProt Q15116)
T1 construct: expressed in transfected cells; host or cells: Jurkat
Test: Jurkat-PD-1 Cell Binding High-Content Screening Assay (CBA)
Type: cell-based
Details: Jurkat cell line over-expressing human PD-1; PE-labeled PD-L1-Ig 20 nM final; read-out: Jurkat hPD1-PDL1 IC50
Summary of the method: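 First, compound is added to PD-1-expressing Jurkat cells in serum-containing DMEM and left 2 h at 37° C. Next, PE-conjugated PD-L1-Ig is introduced at 20 nM final concentration for 1 hour. Finally, cells are fixed in 4% paraformaldehyde with Hoechst 33342, washed and imaged.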

T1 sequence (Q15116 25-288): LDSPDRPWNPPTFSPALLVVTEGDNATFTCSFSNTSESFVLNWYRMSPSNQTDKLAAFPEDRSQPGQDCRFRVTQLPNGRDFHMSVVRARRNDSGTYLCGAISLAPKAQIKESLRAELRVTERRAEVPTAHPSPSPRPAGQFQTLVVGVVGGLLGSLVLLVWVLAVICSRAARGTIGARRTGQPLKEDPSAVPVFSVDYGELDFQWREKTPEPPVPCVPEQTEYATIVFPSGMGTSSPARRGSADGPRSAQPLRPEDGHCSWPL

Compound	IC50
Cc1cccc(C[C@@H]2NC(=O)[C@H](CC(=O)O)NC(=O)[C@H](Cc3ccc(OCC(=O)O)cc3)NC(=O)[C@H](CN)NC(=O)CSC[C@@H](C(=O)N[C@@H](CCN)C(=O)NCCCCCCCCCCC(=O)O)NC(=O)[C@H](CO)NC(=O)[C@H](C(C)C)NC(=O)[C@H](CC3CCCCC3)NC(=O)[C@H](CCN)NC(=O)[C@@H](CC(C)C)NC(=O)[C@H](CCCN)NC(=O)[C@H](Cc3ccc(O)cc3)NC(=O)[C@H](Cc3ccc(-c4ccccc4)cc3)NC(=O)[C@H](C(C)C)NC2=O)c1 [Compound 2718] ({CH2CO}-[Dap]Y(Carboxymethyl)D[Phe(3-Me)]V[Bip]Y[Orn][dL][Dab][Cha]VSC[Dab][Aun]-OH; thioether N-14)	31.3 nM
Cc1cccc(C[C@@H]2NC(=O)[C@H](CC(=O)O)NC(=O)[C@H](Cc3ccc(OCC(=O)O)cc3)NC(=O)[C@H](CN)NC(=O)CSC[C@@H](C(=O)N[C@@H](CCN)C(=O)NCCCCCCCCCCC(=O)O)NC(=O)[C@H](CCC(N)=O)NC(=O)[C@H](C(C)C)NC(=O)[C@H](CC3CCCCC3)NC(=O)[C@H](CCN)NC(=O)[C@@H](CC(C)C)NC(=O)[C@H](CCCN)NC(=O)[C@H](Cc3ccc(O)cc3)NC(=O)[C@H](Cc3ccc(-c4ccccc4)cc3)NC(=O)[C@H](C(C)C)NC2=O)c1 [Compound 2719] ({CH2CO}-[Dap]Y(Carboxymethyl)D[Phe(3-Me)]V[Bip]Y[Orn][dL][Dab][Cha]VQC[Dab][Aun]-OH; thioether N-14)	7.4 nM
CCCC[C@@H]1NC(=O)[C@H](C(C)C)NC(=O)[C@H](CC2CCCCC2)NC(=O)[C@H](CCN)NC(=O)[C@@H](CC(C)C)NC(=O)[C@H](CCCN)NC(=O)[C@H](Cc2ccc(O)cc2)NC(=O)[C@H](Cc2ccc(-c3ccccc3)cc2)NC(=O)[C@H](C(C)C)NC(=O)[C@H](Cc2cccc(C)c2)NC(=O)[C@H](CC(=O)O)NC(=O)[C@H](Cc2ccc(OCC(=O)O)cc2)NC(=O)[C@H](CN)NC(=O)CSC[C@@H](C(=O)N[C@@H](CCN)C(=O)NCCCCCCCCCCC(=O)O)NC1=O [Compound 2720] ({CH2CO}-[Dap]Y(Carboxymethyl)D[Phe(3-Me)]V[Bip]Y[Orn][dL][Dab][Cha]V[Nle]C[Dab][Aun]-OH; thioether N-14)	135 nM
Cc1cccc(C[C@@H]2NC(=O)[C@H](CC(=O)O)NC(=O)[C@H](Cc3ccc(OCC(=O)O)cc3)NC(=O)[C@H](CN)NC(=O)CSC[C@@H](C(=O)N[C@@H](CCN)C(=O)NCCCCCCCCCCC(=O)O)NC(=O)[C@@H](CCC(N)=O)NC(=O)[C@H](C(C)C)NC(=O)[C@H](CC3CCCCC3)NC(=O)[C@H](CCN)NC(=O)[C@@H](CC(C)C)NC(=O)[C@H](CCCN)NC(=O)[C@H](Cc3ccc(O)cc3)NC(=O)[C@H](Cc3ccc(-c4ccccc4)cc3)NC(=O)[C@H](C(C)C)NC2=O)c1 [Compound 2721] ({CH2CO}-[Dap]Y(Carboxymethyl)D[Phe(3-Me)]V[Bip]Y[Orn][dL][Dab][Cha]V[dQ]C[Dab][Aun]-OH; thioether N-14)	22.4 nM
Cc1cccc(C[C@@H]2NC(=O)[C@H](CC(=O)O)NC(=O)[C@H](Cc3ccc(OCC(=O)O)cc3)NC(=O)[C@H](CN)NC(=O)CSC[C@@H](C(=O)N[C@@H](CCN)C(=O)NCCCCCCCCCCC(=O)O)NC(=O)[C@@H]([C@H](C)O)NC(=O)[C@H](C(C)C)NC(=O)[C@H](CC3CCCCC3)NC(=O)[C@H](CCN)NC(=O)[C@@H](CC(C)C)NC(=O)[C@H](CCCN)NC(=O)[C@H](Cc3ccc(O)cc3)NC(=O)[C@H](Cc3ccc(-c4ccccc4)cc3)NC(=O)[C@H](C(C)C)NC2=O)c1 [Compound 2722] ({CH2CO}-[Dap]Y(Carboxymethyl)D[Phe(3-Me)]V[Bip]Y[Orn][dL][Dab][Cha]V[dT]C[Dab][Aun]-OH; thioether N-14)	34.3 nM
Cc1cccc(C[C@@H]2NC(=O)[C@H](CC(=O)O)NC(=O)[C@H](Cc3ccc(OCC(=O)O)cc3)NC(=O)[C@H](CCCNC(=N)N)NC(=O)CSC[C@@H](C(=O)N[C@@H](CCN)C(=O)NCCCCCCCCCCC(=O)O)NC(=O)[C@H](CCCNC(N)=O)NC(=O)[C@H](C(C)C)NC(=O)[C@H](CC3CCCCC3)NC(=O)[C@H](CCN)NC(=O)[C@@H](CC(C)C)NC(=O)[C@H](CCCN)NC(=O)[C@H](Cc3ccc(O)cc3)NC(=O)[C@H](Cc3ccc(-c4ccccc4)cc3)NC(=O)[C@H](C(C)C)NC2=O)c1 [Compound 2723] ({CH2CO}-RY(Carboxymethyl)D[Phe(3-Me)]V[Bip]Y[Orn][dL][Dab][Cha]V[Cit]C[Dab][Aun]-OH; thioether N-14)	26.9 nM
Cc1cccc(C[C@@H]2NC(=O)[C@H](CC(=O)O)NC(=O)[C@H](Cc3ccc(OCC(=O)O)cc3)NC(=O)[C@H](CCCNC(=N)N)NC(=O)CSC[C@@H](C(=O)N[C@@H](CCN)C(=O)NCCCCCCCCCCC(=O)O)NC(=O)[C@H](CCCNC(N)=O)NC(=O)[C@H](C(C)C)NC(=O)[C@H](CC3CCCCC3)NC(=O)[C@H](CCN)NC(=O)[C@@H](CC(C)C)NC(=O)[C@H](CCCN)NC(=O)[C@H](Cc3ccc(O)cc3)NC(=O)[C@H](Cc3ccc(-c4ccccc4)cc3)NC(=O)[C@H](Cc3ccc(O)cc3)NC2=O)c1 [Compound 2724] ({CH2CO}-RY(Carboxymethyl)D[Phe(3-Me)]Y[Bip]Y[Orn][dL][Dab][Cha]V[Cit]C[Dab][Aun]-OH; thioether N-14)	7.7 nM
Cc1cccc(C[C@@H]2NC(=O)[C@H](CC(=O)O)NC(=O)[C@H](Cc3ccc(OCC(=O)O)cc3)NC(=O)[C@H](CCCNC(=N)N)NC(=O)CSC[C@@H](C(=O)N[C@@H](CCN)C(=O)NCCCCCCCCCCC(=O)O)NC(=O)[C@H]([C@@H](C)O)NC(=O)[C@H](C(C)C)NC(=O)[C@H](CC3CCCCC3)NC(=O)[C@H](CCN)NC(=O)[C@@H](CC(C)C)NC(=O)[C@H](CCCN)NC(=O)[C@H](Cc3ccc(O)cc3)NC(=O)[C@H](Cc3ccc(-c4ccccc4)cc3)NC(=O)[C@H](C(C)C)NC2=O)c1 [Compound 2725] ({CH2CO}-RY(Carboxymethyl)D[Phe(3-Me)]V[Bip]Y[Orn][dL][Dab][Cha]VTC[Dab][Aun]-OH; thioether N-14)	29.9 nM
Cc1cccc(C[C@@H]2NC(=O)[C@H](CC(=O)O)NC(=O)[C@H](Cc3ccc(OCC(=O)O)cc3)NC(=O)[C@H](CCCNC(=N)N)NC(=O)CSC[C@@H](C(=O)N[C@@H](CCN)C(=O)NCCCCCCCCCCC(=O)O)NC(=O)[C@H]([C@@H](C)O)NC(=O)[C@H](C(C)C)NC(=O)[C@H](CC3CCCCC3)NC(=O)[C@H](CCN)NC(=O)[C@@H](CC(C)C)NC(=O)[C@H](CCCN)NC(=O)[C@H](Cc3ccc(O)cc3)NC(=O)[C@H](Cc3ccc(-c4ccccc4)cc3)NC(=O)[C@H](Cc3ccc(O)cc3)NC2=O)c1 [Compound 2726] ({CH2CO}-RY(Carboxymethyl)D[Phe(3-Me)]Y[Bip]Y[Orn][dL][Dab][Cha]VTC[Dab][Aun]-OH; thioether N-14)	24.1 nM
CC(C)C[C@H]1NC(=O)[C@H](CCCN)NC(=O)[C@H](Cc2ccc(O)cc2)NC(=O)[C@H](Cc2ccc(-c3ccccc3)cc2)NC(=O)[C@H](C(C)C)NC(=O)[C@H](Cc2c[nH]c3ccccc23)NC(=O)[C@H](CC(=O)O)NC(=O)[C@H](Cc2ccc(OCC(=O)O)cc2)NC(=O)[C@H]([C@@H](C)O)NC(=O)CSC[C@@H](C(=O)N[C@@H](CCN)C(=O)NCCCCCCCCCCC(=O)O)NC(=O)[C@H]([C@@H](C)O)NC(=O)[C@H](C(C)C)NC(=O)[C@H](CC2CCCCC2)NC(=O)[C@H](CCN)NC1=O [Compound 2727] ({CH2CO}-TY(Carboxymethyl)DWV[Bip]Y[Orn][dL][Dab][Cha]VTC[Dab][Aun]-OH; thioether N-14)	30.1 nM
CC(C)C[C@H]1NC(=O)[C@H](CCCN)NC(=O)[C@H](Cc2ccc(O)cc2)NC(=O)[C@H](Cc2ccc(-c3ccccc3)cc2)NC(=O)[C@H](Cc2ccc(O)cc2)NC(=O)[C@H](Cc2c[nH]c3ccccc23)NC(=O)[C@H](CC(=O)O)NC(=O)[C@H](Cc2ccc(OCC(=O)O)cc2)NC(=O)[C@H]([C@@H](C)O)NC(=O)CSC[C@@H](C(=O)N[C@@H](CCN)C(=O)NCCCCCCCCCCC(=O)O)NC(=O)[C@H]([C@@H](C)O)NC(=O)[C@H](C(C)C)NC(=O)[C@H](CC2CCCCC2)NC(=O)[C@H](CCN)NC1=O [Compound 2728] ({CH2CO}-TY(Carboxymethyl)DWY[Bip]Y[Orn][dL][Dab][Cha]VTC[Dab][Aun]-OH; thioether N-14)	17.4 nM
CC(C)C[C@H]1NC(=O)[C@H](CCCN)NC(=O)[C@H](Cc2ccc(O)cc2)NC(=O)[C@H](Cc2ccc(-c3ccccc3)cc2)NC(=O)[C@H](C(C)C)NC(=O)[C@H](Cc2c[nH]c3ccccc23)NC(=O)[C@H](CC(=O)O)NC(=O)[C@H](Cc2ccc(OCC(=O)O)cc2)NC(=O)[C@H]([C@@H](C)O)NC(=O)CSC[C@@H](C(=O)N[C@@H](CCN)C(=O)NCCCCCCCCCCC(=O)O)NC(=O)[C@H](CCCNC(N)=O)NC(=O)[C@H](C(C)C)NC(=O)[C@H](CC2CCCCC2)NC(=O)[C@H](CCN)NC1=O [Compound 2729] ({CH2CO}-TY(Carboxymethyl)DWV[Bip]Y[Orn][dL][Dab][Cha]V[Cit]C[Dab][Aun]-OH; thioether N-14)	12.9 nM
CC(C)C[C@H]1NC(=O)[C@H](CCCN)NC(=O)[C@H](Cc2ccc(O)cc2)NC(=O)[C@H](Cc2ccc(-c3ccccc3)cc2)NC(=O)[C@H](Cc2ccc(O)cc2)NC(=O)[C@H](Cc2c[nH]c3ccccc23)NC(=O)[C@H](CC(=O)O)NC(=O)[C@H](Cc2ccc(OCC(=O)O)cc2)NC(=O)[C@H]([C@@H](C)O)NC(=O)CSC[C@@H](C(=O)N[C@@H](CCN)C(=O)NCCCCCCCCCCC(=O)O)NC(=O)[C@H](CCCNC(N)=O)NC(=O)[C@H](C(C)C)NC(=O)[C@H](CC2CCCCC2)NC(=O)[C@H](CCN)NC1=O [Compound 2730] ({CH2CO}-TY(Carboxymethyl)DWY[Bip]Y[Orn][dL][Dab][Cha]V[Cit]C[Dab][Aun]-OH; thioether N-14)	15.5 nM
